Here are results for one compound from US12419891B2, “Compositions for the treatment of pathogenic- and/or chemical-induced lung injury and for the treatment of cancer and methods of using same” (Duke University, priority 2019, dated 2025).

Test [1] deals with mouse airway epithelium after SO2 injury. Kind of test: sulfur dioxide (SO2) airway injury mouse model. Format: in vivo. An excerpt:
To evaluate whether the Abl kinases promote basal cell differentiation in vivo, the sulfur dioxide (SO2) injury model was employed (FIG. 22). SO2 inhalation elicits cell death and sloughing of luminal (ciliated and secretory) cells, leaving a layer of intact basal cells in the tracheobronchial region (Zuo W. et al. (2015) Nature. 517(7536):616-20). Previous studies have shown that after SO2-induced destruction and sloughing of luminal cells, the surviving basal cells (Krt5+) proliferate to generate progenitor cells (Krt8+) that accumulate and subsequently undergo differentiation into ciliated (acetylated alpha-tubulin+) and secretory (Scgb1a1+) cells (5 days to 2 weeks after injury) (Hogan B L, et al. (2014) Cell stem cell, 15(2):123-38). This well-defined model of airway injury and regeneration has been employed to identify signaling pathways that promote proliferation and differentiation of the lung epithelium after injury (Hogan B L, et al. (2014) Cell stem cell, 15(2):123-38, Tadokoro T, et al., (2014) Proceedings of the National Academy of Sciences of the U.S.A. 111(35):E3641-9).
To distinguish between protective and regenerative effects of Abl kinase inhibition, the expression of various proliferation and differentiation markers in the mouse trachea after injury was evaluated.
Next, whether Abl kinase inhibition promotes basal cell differentiation to Krt8+ cells by affecting Yap1 signaling was investigated. Three days after SO2 injury, mouse tracheas were harvested and evaluated for Yap1 protein expression by immunofluorescence.

The subject of test [2] is primary human bronchial epithelial cells (HBECs). Kind of test: basal cell differentiation of primary HBECs in air-liquid interface (ALI) cultures. It counts as cell-based. Conditions: vs vehicle. From the text:
Cell Culture. Primary human bronchial epithelial cells were isolated as previously described (Fulcher M L & Randell S H (2013) Methods Mol Biol 945:109-121) and passage 1 cells were derived from human lungs unsuitable for transplantation from non-smoker organ donors without pre-existing lung disease under protocol #03-1396 approved by the University of North Carolina at Chapel Hill Biomedical Institutional Review Board. Informed consent was obtained from authorized representatives of all organ donors. 30,000 cells were plated into each well of 6.5 mm polyester inserts containing 0.4 μm pores (Sigma-CLS3470) coated with Type IV human placenta collagen (Sigma-C7521). 100 μl of ALI medium was added to the insert and 600 μl of ALI medium was added to the well at the time of plating. At Day 3, ALI medium from the insert was removed while that in the well was changed daily for 28 days. At Day 28, the inserts containing the cells were removed from their wells, washed with PBS, and incubated at 37° C. for 30 minutes with 1×10^8 CFU S. aureus. Cells were then washed three times with PBS and returned to wells containing 600 μl of ALI medium to regrow. Cells were harvested at multiple time points up to five days after injury for protein or RNA extraction. All cultures were maintained at 37° C. in humidified air containing 5% CO2.
First, the role of Abl kinases in basal cell differentiation in primary human bronchial epithelial cells (HBECs) in air-liquid interface (ALI) cultures was examined. Basal cells were isolated from human donor lungs and plated on polyester transwell inserts at passage 1. Once the cells were 100% confluent (3-4 days after plating), media from the top chamber of the transwell insert was removed to promote differentiation of the basal cells into a pseudostratified ciliated epithelium (FIG. 19A). […] Among these are acetylated α-tubulin and SNTN (ciliated cell marker) and SCGB3A2 (secretory cell marker) (FIG. 19C).
To identify whether Abl kinase inhibition promotes early (Krt5+ cells→Krt8+ cells) or late (Krt8+→acetylated α-tubulin or Scgb1a1+ cells) differentiation, a time course experiment in primary HBEC ALI cultures was conducted. Primary HBECs were plated on polyester transwell inserts and treated with vehicle control or GNF5 24 hours after plating.

As to `O=C(NCCO)c1cccc(-c2cc(Nc3ccc(OC(F)(F)F)cc3)ncn2)c1` [GNF5, N-(2-Hydroxyethyl)-3-(6-(4-(trifluoromethoxy)phenylamino)pyrimidin-4-yl)benzamide], in test [1] (24 h following SO2 induced injury, vs untreated), the “Ki67 expression in tracheal basal cells” value was “significant increase in the expression of Ki67”. The “Scgb1a1+ Club cells and acetylated α-tubulin+ ciliated cells (staining)” value in test [1] (24 hours after SO2 exposure) was “mostly intact layer of secretory cells and some ciliated cells”. For the same compound, the “quantification of acetylated α-tubulin+ ciliated cells in whole tracheas” value in test [1] (24 hours after sulfur dioxide, pre-treatment 24 hours before) is on record as “protection of ciliated cells”. Moreover, the “pseudostratified epithelium in whole trachea sections (immunofluorescence)” value in test [1] (after SO2 injury, vs untreated mice) is “preservation of the pseudostratified epithelium”. In test [1] (three days after SO2 injury), the “Yap1 localization in basal cells” value is listed as “predominantly cytoplasmic localization of Yap1” and the “tracheal epithelium morphology (H&E)” value is recorded as “stratified, columnar, ciliated epithelium that had almost completely recovered from injury”. In addition, the “state of airway epithelium” value in test [1] (within 24 hours after SO2 injury, pre-treated mice) was “mostly intact mouse airway epithelium”. Moreover, the “SNTN expression (RT-PCR)” value in test [2] (7 days after plating) is on record as “increase in expression of SNTN”. Besides, the “Krt8 expression (immunofluorescence and Western blot)” value in test [2] (treated 24 hours after plating) is recorded as “significant increase in expression of Krt8”.
